How the values were obtained:
[1] = test system: Rat Hepatocyte; assay: Rat hepatocyte metabolism; assay type: in vitro ADME; details: 24-hour incubation
[2] = target: T1, ENaC (Canis lupus familiaris, UniProt A0A8I3MKE6+A0A8I3Q679+Q95165); assay: In vitro sodium channel blocking activity and reversibility (short circuit current, Ussing chambers); assay type: cell-based, canine
T1 construct: using primary cultures of canine bronchial epithelial cells; endogenous in cells; host or cells: primary canine bronchial epithelial cells cultured at air-liquid interface
T1 sequence (A0A8I3Q679 1-649): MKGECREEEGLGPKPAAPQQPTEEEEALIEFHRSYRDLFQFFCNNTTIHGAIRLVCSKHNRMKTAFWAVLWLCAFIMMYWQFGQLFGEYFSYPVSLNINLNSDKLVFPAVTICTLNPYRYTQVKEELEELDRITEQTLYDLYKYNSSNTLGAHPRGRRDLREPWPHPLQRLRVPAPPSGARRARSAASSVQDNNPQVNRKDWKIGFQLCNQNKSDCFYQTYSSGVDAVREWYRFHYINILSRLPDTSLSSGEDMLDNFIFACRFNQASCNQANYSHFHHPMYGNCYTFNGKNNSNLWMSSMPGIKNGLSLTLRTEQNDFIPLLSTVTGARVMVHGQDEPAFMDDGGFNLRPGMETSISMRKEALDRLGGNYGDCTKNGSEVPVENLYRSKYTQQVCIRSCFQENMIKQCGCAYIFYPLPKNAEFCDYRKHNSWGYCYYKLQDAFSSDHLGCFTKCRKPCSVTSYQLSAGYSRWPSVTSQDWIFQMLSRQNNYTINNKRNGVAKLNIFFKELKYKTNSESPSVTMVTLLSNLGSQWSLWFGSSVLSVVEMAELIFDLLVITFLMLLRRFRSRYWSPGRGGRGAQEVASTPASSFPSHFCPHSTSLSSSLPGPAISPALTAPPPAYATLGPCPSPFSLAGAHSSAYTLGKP
T1 sequence (Q95165 1-641): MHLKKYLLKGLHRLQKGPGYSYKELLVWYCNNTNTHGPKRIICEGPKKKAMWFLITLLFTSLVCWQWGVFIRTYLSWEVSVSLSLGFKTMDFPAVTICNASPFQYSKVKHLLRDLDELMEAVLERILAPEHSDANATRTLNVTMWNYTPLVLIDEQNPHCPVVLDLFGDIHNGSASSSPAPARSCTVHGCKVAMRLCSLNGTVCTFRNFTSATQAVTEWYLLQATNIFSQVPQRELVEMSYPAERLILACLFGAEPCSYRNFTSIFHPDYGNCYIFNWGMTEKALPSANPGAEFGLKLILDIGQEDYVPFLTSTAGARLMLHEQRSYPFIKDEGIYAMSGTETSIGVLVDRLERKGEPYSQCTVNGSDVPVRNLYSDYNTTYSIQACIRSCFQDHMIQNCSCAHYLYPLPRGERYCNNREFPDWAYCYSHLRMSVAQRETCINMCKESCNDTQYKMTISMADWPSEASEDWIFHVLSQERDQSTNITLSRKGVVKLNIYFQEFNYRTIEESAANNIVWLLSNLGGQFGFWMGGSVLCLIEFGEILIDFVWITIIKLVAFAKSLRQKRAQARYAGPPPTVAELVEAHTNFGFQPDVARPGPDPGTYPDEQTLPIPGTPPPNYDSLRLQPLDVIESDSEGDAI
T1 sequence (A0A8I3MKE6 1-646): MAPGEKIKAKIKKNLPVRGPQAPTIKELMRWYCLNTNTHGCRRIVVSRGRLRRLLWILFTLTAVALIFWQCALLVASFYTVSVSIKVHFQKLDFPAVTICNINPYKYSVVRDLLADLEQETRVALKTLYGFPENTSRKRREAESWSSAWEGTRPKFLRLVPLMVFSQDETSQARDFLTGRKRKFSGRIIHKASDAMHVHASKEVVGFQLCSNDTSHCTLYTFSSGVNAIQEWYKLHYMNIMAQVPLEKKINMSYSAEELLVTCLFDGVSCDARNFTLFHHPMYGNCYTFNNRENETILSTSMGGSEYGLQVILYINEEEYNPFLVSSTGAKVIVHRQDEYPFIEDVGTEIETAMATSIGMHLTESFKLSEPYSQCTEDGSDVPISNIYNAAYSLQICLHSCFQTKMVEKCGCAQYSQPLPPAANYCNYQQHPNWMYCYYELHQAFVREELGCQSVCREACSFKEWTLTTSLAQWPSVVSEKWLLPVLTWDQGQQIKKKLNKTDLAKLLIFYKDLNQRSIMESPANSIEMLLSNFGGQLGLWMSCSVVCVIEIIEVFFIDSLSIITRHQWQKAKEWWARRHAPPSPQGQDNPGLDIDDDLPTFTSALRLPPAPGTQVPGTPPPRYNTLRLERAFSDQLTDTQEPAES
Description: One assay used to assess mechanism of action and/or potency of the compounds of the present invention involves the determination of lumenal drug inhibition of airway epithelial sodium currents measured under short circuit current (ISC) using airway epithelial monolayers mounted in Ussing chambers. Cells obtained from freshly excised human, dog, sheep or rodent airways are seeded onto porous 0.4 micron Snapwell™ Inserts (CoStar), cultured at air-liquid interface (ALI) conditions in hormonally defined media, and assayed for sodium transport activity (ISC) while bathed in Krebs Bicarbonate Ringer (KBR) in Using chambers. All test drug additions are to the lumenal bath with half-log dose addition protocols (from 1×10^−11 M to 3×10^−5 M), and the cumulative change in ISC (inhibition) recorded. All drugs are prepared in dimethyl sulfoxide as stock solutions at a concentration of 1×10^−2 M and stored at −20° C. […] After the maximal concentration ([…]) is administered, the lumenal bath is exchanged three times with fresh drug-free KBR solution, and the resultant ISC measured after each wash for approximately 5 minutes in duration. Reversibility is defined as the percent return to the baseline value for sodium current after the third wash. All data from the voltage clamps are collected via a computer interface and analyzed off-line.
Dose-effect relationships for all compounds are considered and analyzed by the Prism 3.0 program. […] The potency of the sodium channel blocking activity of representative compounds in freshly excised cell from canine airways is shown in Table 2.

[3] = Human plasma stability; assay type: in vitro ADME; details: over 4 hours

Compound: CN(C)C(=O)[C@H](CCCCNC(=N)N)NC(=O)[C@H](CCc1ccc(CCCCNC(=N)NC(=O)c2nc(Cl)c(N)nc2N)cc1)N(C)C [Compound I, 3,5-diamino-6-chloro-N-(N-(4-(4-((S)-3-(dimethylamino)-4-((S)-1-(dimethylamino)-6-guanidino-1-oxohexan-2-ylamino)-4-oxobutyl)phenyl)butyl)carbamimidoyl)pyrazine-2-carboxamide]
- Rat Hepatocyte Metabolism [1]: No evidence of significant metabolism
- Potency compared to amiloride ([2]; Ussing chamber, primary cultures of canine bronchial epithelial cells): > 100 fold
- IC50 ([2]; canine bronchial epithelial cells, n=5, read-out: Potency (IC50) on Canine Bronchial Epithelial Cells): 5.3 nM
- Emax ([2]; with 3 washes, n=3, read-out: Reversal of Maximal Effect on Canine Bronchial Epithelial Cells (effect lost)): 6.8 ± 5.1%
- Human Plasma Stability [3]: No metabolism detected

Reference: patent publication US10159672B2 (PARION SCIENCES, INC., priority 2011, dated 2018)
